Laboratory results as given in patent US20100069493A1, “AQUEOUS PHARMACEUTICAL FORMULATION OF 4-[((4-CARBOXYBUTYL)-AMINO)METHYL]BENZOIC ACID” (BAYER HEALTHCARE AG, priority 2006, published 2010).
Converted amounts (≈) assume the structure as drawn.

Key:
Type in all cases: physicochemical
[1] = pKa of the ionizable groups of compound 1
Text: (§1) However, there are limits to increasing the pH due to the use as infusion. Values of pH above pH 9.0 are borderline in relation to physiological tolerability.

[2] = Saturation solubility of compound 1 in various buffer media; conditions: aqueous buffer, thermodynamic from solid
Text: as §1

[3] = Dilution experiments on 0.05 mg/ml solutions with and without trometamol (Table 2); conditions: for Appearance of the solution: 0.05 mg/ml solution with trometamol 0.01 molar, pH before dilution 8.74
Protocol: Dilution experiments on solutions with an active ingredient content of 0.05 mg/ml have shown that these can be diluted in a pH-stable and thus problem-free manner over a wide range only if they are buffered with a sufficient quantity of trometamol.
Without use of trometamol and on use of trometamol in a concentration of only 0.001 M, the pH falls greatly even with slight dilution (1+5). There is a high risk in this case that the active ingredient will precipitate on dilution with other infusion solutions (Table 2 a-c).

[4] = Titration experiments with 0.01 N hydrochloric acid (acid burden, precipitation)
Protocol: It was possible to show in titration experiments that an acid burden of 0.01 N hydrochloric acid in solutions without trometamol leads to such a large fall in pH even on addition of less than 1 ml to the total content of a 50 ml infusion bottle that the active ingredient precipitates. On addition of 0.001 M trometamol buffer, precipitations are to be observed on addition of about 5 ml of 0.01 N hydrochloric acid. A solution with a trometamol content of 0.01 M is by contrast stable to precipitations on addition of acid up to more than 35 ml of 0.01 N hydrochloric acid.

[5] = Dilution of 0.05 mg/ml compound 1 / 0.01 M trometamol solutions with standard infusion solutions (Table 3); conditions: trometamol 0.01 M
Protocol: Solutions comprising compound 1 in a concentration of 0.05 mg/ml and trometamol in a concentration of 0.01 M can be diluted problem-free with standard infusion solutions over a wide range. The dilution experiments shown in Table 3 were carried out concerning this:
All the dilution experiments were carried out in duplicate. […] It emerged that there is a marked decrease in the pH values to the region below 8.0 only with dilutions greater than 1:40. Precipitation of the active ingredient is no longer a worry with such great dilutions, because the solubility limit of compound 1 is no longer reached owing to the large amount of dilution medium.

In the case of `O=C(O)CCCCN(CCc1ccccc1OCc1ccc(CCc2ccccc2)cc1)Cc1ccc(C(=O)O)cc1` [compound 1, 4-[((4-Carboxybutyl)-{2-[(4-phenethylbenzyl)oxy]phenethyl}amino)methyl]benzoic acid], the pKa1 [1] is reported as 4.0, the pKa2 [1] is reported as 4.7 and the pKa3 [1] is reported as 8.3. For the same molecule, the solubility ([2]; Ammonium chloride buffer solution, actual pH 9.5) was 75.7 mg/mL (≈ 134000 µM), the solubility ([2]; Citric acid-phosphate buffer, actual pH 7.4) was 0.0131 mg/mL (≈ 23.2 µM) and the solubility ([2]; Citric acid-phosphate buffer, actual pH 8.0) was 0.0642 mg/mL (≈ 113 µM). It also gave a solubility ([2]; Diethanolamine buffer solution, actual pH 10.0) of 89.8 mg/mL (≈ 159000 µM), a solubility ([2]; HEPES buffer solution, actual pH 7.5) of 0.0358 mg/mL (≈ 63.3 µM) and a solubility ([2]; Phosphate buffer solution (0.2 M), actual pH 7.5) of 0.0158 mg/mL (≈ 27.9 µM). The solubility ([2]; Phosphate buffer solution (0.3 M), actual pH 7.5) was 0.0013 mg/mL (≈ 2.3 µM), the solubility ([2]; Phosphate buffer solution, actual pH 6.0) was 0.0002 mg/mL (≈ 0.354 µM) and the solubility ([2]; Phosphate buffer solution, actual pH 7.2) was 0.0084 mg/mL (≈ 14.8 µM). For the same molecule, the solubility ([2]; Phosphate buffer solution, actual pH 7.4) was 0.0215 mg/mL (≈ 38 µM), the solubility ([2]; Phosphate buffer solution, actual pH 8.0) was 0.0032 mg/mL (≈ 5.66 µM) and the solubility ([2]; Phosphate buffer solution, actual pH 9.0) was 0.683 mg/mL (≈ 1210 µM). It also gave a solubility ([2]; Saline-phosphate buffer, actual pH 7.4) of 0.019 mg/mL (≈ 33.6 µM), a solubility ([2]; Sodium citrate buffer solution, actual pH 7.8) of 0.16 mg/mL (≈ 283 µM) and a solubility ([2]; Tetrabutylammonium buffer solution, actual pH 7.0) of 0.0128 mg/mL (≈ 22.6 µM). For the same molecule, the pH after dilution ([3]; 0.05 mg/ml solution with trometamol 0.001 molar, mixing ratio 1 + 5, NaCl soln, final volume 251 ml, pH before dilution 8.69) was 8.43, the pH after dilution ([3]; 0.05 mg/ml solution with trometamol 0.001 molar, mixing ratio 1 + 10, NaCl soln, final volume 275 ml, pH before dilution 8.69) was 8.05 and the pH after dilution ([3]; 0.05 mg/ml solution with trometamol 0.001 molar, mixing ratio 1 + 250, NaCl soln, final volume 300 ml, pH before dilution 8.69) was 6.61. The “Appearance of the solution” value ([3]; mixing ratio 1 + 5, NaCl soln, final volume 251 ml) was “clear”, the “Appearance of the solution” value ([3]; mixing ratio 1 + 10, NaCl soln, final volume 275 ml) was “clear” and the “Appearance of the solution” value ([3]; mixing ratio 1 + 250, NaCl soln, final volume 300 ml) was “clear”. The pH after dilution ([3]; 0.05 mg/ml solution without trometamol, mixing ratio 1 + 5, NaCl soln, final volume 251 ml, pH before dilution 8.51) was 6.40, the pH after dilution ([3]; 0.05 mg/ml solution without trometamol, mixing ratio 1 + 10, NaCl soln, final volume 275 ml, pH before dilution 8.51) was 6.58 and the pH after dilution ([3]; 0.05 mg/ml solution without trometamol, mixing ratio 1 + 250, NaCl soln, final volume 300 ml, pH before dilution 8.51) was 6.70. The “Volume of 0.01 N hydrochloric acid at which precipitations are observed” value ([4]; solution with 0.001 M trometamol buffer, 50 ml infusion bottle) was “about 5 ml”, the “Volume of 0.01 N hydrochloric acid up to which the solution is stable to precipitations” value ([4]; solution with trometamol content of 0.01 M, 50 ml infusion bottle) was “more than 35 ml” and the “Volume of 0.01 N hydrochloric acid at which the active ingredient precipitates” value ([4]; solution without trometamol, added to total content of a 50 ml infusion bottle) was “less than 1 ml”. The Precipitation on dilution ([5]; all dilutions of Table 3, in duplicate) was “No precipitations occurred”, the pH after dilution ([5]; mixing ratio 1:2, NaCl soln, final volume 10 ml) was 8.67 and the pH after dilution ([5]; mixing ratio 1:4, NaCl soln, final volume 20 ml) was 8.65. The pH after dilution ([5]; mixing ratio 1:10, Glucose soln, final volume 50 ml) was 8.37, the pH after dilution ([5]; mixing ratio 1:10, NaCl soln, final volume 50 ml) was 8.57 and the pH after dilution ([5]; mixing ratio 1:10, Placebo soln, final volume 50 ml) was 8.72. For the same molecule, the pH after dilution ([5]; mixing ratio 1:10, Water, final volume 50 ml) was 8.61, the pH after dilution ([5]; mixing ratio 1:20, NaCl soln, final volume 100 ml) was 8.54 and the pH after dilution ([5]; mixing ratio 1:40, NaCl soln, final volume 200 ml) was 8.40. The pH after dilution ([5]; mixing ratio 1:200, NaCl soln, final volume 1000 ml) was 7.85.
